Laboratory results from article PMC11882969 (Nature Communications, 2025).
“And” between values parts separate entries of the source, which are not always exact repeats. Identical values can stand only once. Like-named read-outs stand apart in the source and are kept apart here.

Experiments:
[1] = molecular target: hCB1 (Homo sapiens, UniProt P21554); assay: bioSensAll ebBRET signaling profiling, hCB1; assay type: cell-based; parameters: host or cells: HEK293SL cells, transient PEI transfection; conditions: for Gi1 hCB1 response: Gi1 biosensor; for Gi1 hCB1 / GoB hCB1: single replicate values, FigS6a; for EC50: read-out: EC50 [95% CI]; for Emax: normalized to CP-55,940
hCB1, sequence (P21554 whole entry): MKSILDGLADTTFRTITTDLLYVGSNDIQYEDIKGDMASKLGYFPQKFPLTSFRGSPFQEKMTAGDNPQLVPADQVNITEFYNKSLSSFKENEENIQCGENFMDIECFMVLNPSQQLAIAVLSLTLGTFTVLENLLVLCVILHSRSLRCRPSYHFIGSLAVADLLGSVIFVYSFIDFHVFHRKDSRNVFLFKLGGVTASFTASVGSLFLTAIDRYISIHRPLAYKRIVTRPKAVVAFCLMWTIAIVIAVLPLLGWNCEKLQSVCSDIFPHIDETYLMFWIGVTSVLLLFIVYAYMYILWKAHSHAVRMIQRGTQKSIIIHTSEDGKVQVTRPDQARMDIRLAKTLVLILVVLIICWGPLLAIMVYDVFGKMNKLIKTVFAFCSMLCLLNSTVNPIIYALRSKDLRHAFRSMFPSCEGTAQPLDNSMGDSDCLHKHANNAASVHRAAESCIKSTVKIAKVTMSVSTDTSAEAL

[2] = molecular target: CB1 (rCB1) (Rattus norvegicus, UniProt P20272); assay: Radioligand competition binding, [3H]-CP-55,940, rat brain membranes
CB1 (rCB1), sequence (P20272 whole entry): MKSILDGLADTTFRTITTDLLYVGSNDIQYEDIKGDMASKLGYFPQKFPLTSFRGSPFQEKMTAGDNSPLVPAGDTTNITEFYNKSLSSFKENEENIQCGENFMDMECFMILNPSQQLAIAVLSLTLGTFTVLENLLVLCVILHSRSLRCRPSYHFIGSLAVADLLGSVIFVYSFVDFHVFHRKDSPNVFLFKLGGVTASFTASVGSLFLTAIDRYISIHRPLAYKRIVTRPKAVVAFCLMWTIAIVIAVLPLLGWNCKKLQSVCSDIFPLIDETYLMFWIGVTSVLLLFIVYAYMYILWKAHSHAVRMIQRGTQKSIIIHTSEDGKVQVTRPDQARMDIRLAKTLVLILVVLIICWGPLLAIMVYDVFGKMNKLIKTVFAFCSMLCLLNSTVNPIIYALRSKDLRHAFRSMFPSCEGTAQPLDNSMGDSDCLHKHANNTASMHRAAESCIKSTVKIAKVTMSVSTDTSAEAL

For `CC(=O)C(c1cccs1)N(C)C(=O)c1cc(C)n(-c2cccc(C(F)(F)F)c2)n1` (stereo not shown) [‘6829], which “Gi1 hCB1 response” value ([1]; Log [Compound] (M) -4.22186) is on record?
The value was 50.5929.

And the “Gi1 hCB1 response” value ([1]; Log [Compound] (M) -4.63927)?
The value was 80.4274.

What about the “Gi1 hCB1 response” value ([1]; Log [Compound] (M) -5.05788) of the same compound?
The value was 60.8884.

And the “Gi1 hCB1 response” value ([1]; Log [Compound] (M) -5.47381)?
The value was 50.1453.

What about the “Gi1 hCB1 response” value ([1]; Log [Compound] (M) -5.89285) of the same compound?
Its value is 25.0333.

And the “Gi1 hCB1 response” value ([1]; Log [Compound] (M) -6.31878)?
The value was 14.2679.

What about the “Gi1 hCB1 response” value ([1]; Log [Compound] (M) -6.72585) of the same compound?
Its value is 9.501.

And the “Gi1 hCB1 response” value ([1]; Log [Compound] (M) -7.14267)?
The value was -0.2577.

What about the “Gi1 hCB1 response” value ([1]; Log [Compound] (M) -7.55284) of the same compound?
The value was -0.3025.

What about the “Gi1 hCB1 response” value ([1]; Log [Compound] (M) -8) of the same compound?
Its value is -3.011.

And the “Gi1 hCB1 response” value ([1]; Log [Compound] (M) -8.22186)?
Its value is 2.07.

What about the “Gi1 hCB1 response” value ([1]; Log [Compound] (M) -8.39794) of the same compound?
Its value is -6.077.

And the “Gi1 hCB1 response” value ([1]; Log [Compound] (M) -8.68787)?
Its value is 2.45.

What about the “Gi1 hCB1 response” value ([1]; Log [Compound] (M) -9.15521) of the same compound?
The value was 5.629.

What about the “Gi1 hCB1 response” value ([1]; Log [Compound] (M) -9.61989) of the same compound?
Its value is -3.749.

What about the “Gi1 hCB1 response” value ([1]; Log [Compound] (M) -10.0969) of the same compound?
The value was -4.958.

And the “Gi1 hCB1 response” value ([1]; Log [Compound] (M) -10.5529)?
Its value is -8.091.

What about the “Gi1 hCB1 response” value ([1]; Log [Compound] (M) -11.0177) of the same compound?
The value was -9.456.

And the “Gi1 hCB1 response” value ([1]; Log [Compound] (M) -11.4949)?
Its value is -2.585.

And the “Gi1 hCB1 response” value ([1]; Log [Compound] (M) -11.9208)?
Its value is -4.1073.

And the “Gi1 hCB1 response” value ([1]; Log [Compound] (M) -12.3979)?
The value was -11.8513.

And the “Gi1 hCB1 response” value ([1]; Log [Compound] (M) -12.8861)?
Its value is -4.7116.

And the “Gi1 hCB1 response” value ([1]; Log [Compound] (M) -13, individual replicate values)?
Its value is -0.3696 and -4.085.

What about the “Gi1 hCB1” value ([1]; Log [Compound] (M) -4.22186) of the same compound?
The value was 59.6278.

What about the “GoB hCB1” value ([1]; Log [Compound] (M) -4.22186) of the same compound?
The value was 46.0809.

What about the “Gi1 hCB1” value ([1]; Log [Compound] (M) -4.63927) of the same compound?
Its value is 49.4067.

What about the “GoB hCB1” value ([1]; Log [Compound] (M) -4.63927) of the same compound?
Its value is 48.6345.

And the “Gi1 hCB1” value ([1]; Log [Compound] (M) -5.05788)?
The value was 40.28.

And the “GoB hCB1” value ([1]; Log [Compound] (M) -5.05788)?
Its value is 42.8439.

And the “Gi1 hCB1” value ([1]; Log [Compound] (M) -5.47381)?
Its value is 35.5317.

And the “GoB hCB1” value ([1]; Log [Compound] (M) -5.47381)?
Its value is 37.2331.

What about the “Gi1 hCB1” value ([1]; Log [Compound] (M) -5.89285) of the same compound?
Its value is 23.7381.

What about the “GoB hCB1” value ([1]; Log [Compound] (M) -5.89285) of the same compound?
The value was 25.7777.

And the “Gi1 hCB1” value ([1]; Log [Compound] (M) -6.31878)?
Its value is 13.3781.

What about the “GoB hCB1” value ([1]; Log [Compound] (M) -6.31878) of the same compound?
Its value is 16.7141.

And the “Gi1 hCB1” value ([1]; Log [Compound] (M) -6.72585)?
The value was 9.694.

And the “GoB hCB1” value ([1]; Log [Compound] (M) -6.72585)?
The value was 6.7333.

What about the “Gi1 hCB1” value ([1]; Log [Compound] (M) -7.14267) of the same compound?
The value was 3.188.

What about the “GoB hCB1” value ([1]; Log [Compound] (M) -7.14267) of the same compound?
Its value is 2.399.

What about the “Gi1 hCB1” value ([1]; Log [Compound] (M) -7.55284) of the same compound?
Its value is 5.377.

And the “GoB hCB1” value ([1]; Log [Compound] (M) -7.55284)?
The value was 1.374.

And the “Gi1 hCB1” value ([1]; Log [Compound] (M) -8)?
Its value is 4.359.

What about the “GoB hCB1” value ([1]; Log [Compound] (M) -8) of the same compound?
The value was 2.831.

And the “Gi1 hCB1” value ([1]; Log [Compound] (M) -8.22186)?
The value was 1.1836.

And the “GoB hCB1” value ([1]; Log [Compound] (M) -8.22186)?
The value was -4.488.

What about the “Gi1 hCB1” value ([1]; Log [Compound] (M) -8.39794) of the same compound?
The value was 5.593.

And the “GoB hCB1” value ([1]; Log [Compound] (M) -8.39794)?
The value was 1.554.

What about the “Gi1 hCB1” value ([1]; Log [Compound] (M) -8.68787) of the same compound?
The value was 1.615.

And the “GoB hCB1” value ([1]; Log [Compound] (M) -8.68787)?
Its value is -3.931.

What about the “Gi1 hCB1” value ([1]; Log [Compound] (M) -9.15521) of the same compound?
Its value is 2.463.

And the “GoB hCB1” value ([1]; Log [Compound] (M) -9.15521)?
The value was -1.036.

And the “Gi1 hCB1” value ([1]; Log [Compound] (M) -9.61989)?
Its value is 0.7057.

What about the “GoB hCB1” value ([1]; Log [Compound] (M) -9.61989) of the same compound?
The value was -1.161.

What about the “Gi1 hCB1” value ([1]; Log [Compound] (M) -10.0969) of the same compound?
The value was 1.353.

What about the “GoB hCB1” value ([1]; Log [Compound] (M) -10.0969) of the same compound?
Its value is -3.463.

And the “Gi1 hCB1” value ([1]; Log [Compound] (M) -10.5529)?
Its value is 1.137.

What about the “GoB hCB1” value ([1]; Log [Compound] (M) -10.5529) of the same compound?
The value was 1.105.

What about the “Gi1 hCB1” value ([1]; Log [Compound] (M) -11.0177) of the same compound?
The value was 3.142.

What about the “GoB hCB1” value ([1]; Log [Compound] (M) -11.0177) of the same compound?
Its value is -0.532.

What about the “Gi1 hCB1” value ([1]; Log [Compound] (M) -11.4949) of the same compound?
The value was 2.879.

And the “GoB hCB1” value ([1]; Log [Compound] (M) -11.4949)?
Its value is 1.392.

And the “Gi1 hCB1” value ([1]; Log [Compound] (M) -11.9208)?
Its value is 3.126.

What about the “GoB hCB1” value ([1]; Log [Compound] (M) -11.9208) of the same compound?
Its value is 1.392.

What about the “Gi1 hCB1” value ([1]; Log [Compound] (M) -12.3979) of the same compound?
Its value is 4.159.

What about the “GoB hCB1” value ([1]; Log [Compound] (M) -12.3979) of the same compound?
Its value is 2.561.

And the “Gi1 hCB1” value ([1]; Log [Compound] (M) -12.8861)?
The value was 3.496.

And the “GoB hCB1” value ([1]; Log [Compound] (M) -12.8861)?
Its value is 2.705.

And the “Gi1 hCB1” value ([1]; Log [Compound] (M) -13)?
Its value is 3.327 and 1.677.

And the “GoB hCB1” value ([1]; Log [Compound] (M) -13)?
Its value is -2.744 and -3.607.

What about the “pEC50 [95% CI]” value ([1]; hCB1 Gi1) of the same compound?
The value was 5.4 [5.0 – 5.6].

And the “pEC50 [95% CI]” value ([1]; hCB1 GoB)?
The value was 6.0 [5.8 – 6.2].

And the “pEC50 [95% CI]” value ([1]; hCB1 Gz)?
The value was 5.9 [6.0 – 6.2].

And the EC50 ([1]; hCB1 Gi1)?
The EC50 was 4060 nM.

And the EC50 ([1]; hCB1 Gz)?
The EC50 was 1350 nM.

And the Emax ([1]; read-out: Emax [95% CI], hCB1 Gi1)?
The Emax was 68%.

And the Emax ([1]; read-out: Emax [95% CI], hCB1 GoB)?
Its Emax is 49%.

And the Emax ([1]; read-out: Emax [95% CI], hCB1 Gz)?
Its Emax is 70%.

What about the “pKi [95% CI]” value ([2]; rCB1) of the same compound?
The value was 6.0 [5.8 – 6.2].

And the Ki ([2]; read-out: Ki [95% CI], rCB1, [3H]-CP-55,940)?
Its Ki is 1050 nM.
